Key:
Format in all cases: cell-based
NCI-H520 cells = test: Colony formation assay, NCI-H520
Description: (§1) Crystal violet assays were used to assess relative cell growth and survival after treatment with specific compounds. In general, cells were plated in triplicate in 12-well plates for 24 hours before drug treatments were added using 10% FBS media. The plates were incubated for 14 days, with the media and drug being replaced every 48 hours. The cells were then washed with phosphate-buffered saline and fixed in ice-cold methanol before being stained with 0.5% crystal violet (Sigma-Aldrich) in 25% methanol. Images were taken using a ChemiDoc MP Imaging System (Bio Rad), and for quantification, the crystal violet stain was dissolved in 33% acetic acid, incubated for 20 minutes with shaking, and read at 595 nm using iMark™ Microplate Absorbance Reader (Bio-Rad). Graphs display percent colony formation relative to the DMSO-treated control sample.

CAL33 cells [1] = test: MTS cell viability assay, CAL33
Description: A Cell Titer 96 AQueous One Solution Cell Proliferation Assay (Promega) was used for MTS assays following the manufacturer's protocol. […] MTS was added, cells were incubated for two hours, and absorbance was measured at 490 nm using iMark™ Microplate Absorbance Reader (Bio-Rad). Graphs display percent cell viability relative to the DMSO-treated control sample. EC50 values were determined using GraphPad Prism 8.

CAL33 cells [2] = test: Colony formation assay, CAL33
Description: as §1

LK2 cells = test: Colony formation assay, LK2
Description: as §1

LZK = target: T1, LZK (Homo sapiens, UniProt O43283); test: LZK inhibition in cells monitored by downstream JNK phosphorylation (dox-induced LZK); parameters: V5 (named only in the vector); expressed in transfected cells; host or cells: CAL33 HNSCC cells, lentiviral T-REx system, induced with doxycycline; conditions: for duration of JNK pathway inactivation / time at which LZK activity toward JNK was inhibited: 250 nM; for LZK inhibition in cells, measured by inhibition of downstream JNK pathway activation: dox-inducible LZK in CAL33 cells
T1 sequence (O43283 1-966): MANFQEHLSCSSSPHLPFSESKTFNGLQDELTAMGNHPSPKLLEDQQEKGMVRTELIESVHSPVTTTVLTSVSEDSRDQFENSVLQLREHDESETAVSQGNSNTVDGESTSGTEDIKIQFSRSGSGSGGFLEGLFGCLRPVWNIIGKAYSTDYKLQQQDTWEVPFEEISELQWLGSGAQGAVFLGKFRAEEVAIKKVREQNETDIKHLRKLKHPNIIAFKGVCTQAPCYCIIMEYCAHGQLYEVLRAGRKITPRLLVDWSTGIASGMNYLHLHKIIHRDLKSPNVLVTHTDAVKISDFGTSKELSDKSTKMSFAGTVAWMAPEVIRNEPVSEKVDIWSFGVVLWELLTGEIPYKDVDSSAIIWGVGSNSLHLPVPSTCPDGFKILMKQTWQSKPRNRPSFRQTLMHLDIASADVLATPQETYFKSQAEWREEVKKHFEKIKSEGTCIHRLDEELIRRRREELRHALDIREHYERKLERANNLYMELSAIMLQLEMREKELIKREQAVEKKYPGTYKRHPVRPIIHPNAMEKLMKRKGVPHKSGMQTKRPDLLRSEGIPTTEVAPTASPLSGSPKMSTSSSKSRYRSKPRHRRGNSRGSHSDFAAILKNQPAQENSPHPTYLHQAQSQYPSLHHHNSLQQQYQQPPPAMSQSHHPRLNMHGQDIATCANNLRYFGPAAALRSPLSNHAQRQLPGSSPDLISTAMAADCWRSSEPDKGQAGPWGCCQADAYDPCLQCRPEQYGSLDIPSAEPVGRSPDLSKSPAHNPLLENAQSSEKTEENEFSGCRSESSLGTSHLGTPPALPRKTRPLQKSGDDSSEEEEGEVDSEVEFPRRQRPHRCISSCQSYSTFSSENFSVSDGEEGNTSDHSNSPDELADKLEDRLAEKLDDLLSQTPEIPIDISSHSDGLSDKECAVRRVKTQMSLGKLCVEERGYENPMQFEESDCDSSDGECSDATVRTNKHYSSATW
Text: The ViraPower HiPerform T-REx Gateway Expression System (Invitrogen) was used to generate cells with tetracycline-inducible expression of LZK. In brief, wild-type (WT) or drug-resistant mutant (Q240S) LZK (cloned into pLenti6.3/TO/V5-DEST vector) and pLenti3.3/TR (for tetracycline repressor expression) were transfected into 293FT cells using Lipofectamine 2000 to generate lentiviral stock. Cell lines were generated by antibiotic selection (blasticidin [Gibco] and geneticin [Gibco]). Doxycycline (Sigma-Aldrich) was used at 1 μg/mL to induce LZK expression.
Generally, cells were plated in six-well or 35-mm plates for 24 hours, after which doxycycline was added or treatment with specific inhibitor was administered using […] for 48 hours. After appropriate treatment time, cells were washed with ice-cold phosphate-buffered saline without Ca and Mg (Quality Biological) and then lysed on ice with RIPA buffer (50 mM NaCl, 1.0% o IGEPAL® CA-630, 0.5% o sodium deoxycholate, 0.10% SDS, 50 mM Tris, pH 8.0) (Sigma-Aldrich) supplemented with protease inhibitor tablet (Sigma-Aldrich) and phosphatase inhibitor cocktails 2 and 3 (Sigma-Aldrich) followed by centrifugation at 15,000 rpm for 10 minutes at 4° C. Protein concentrations were determined from the cell lysate by using 660 nm Protein Assay Reagent (Pierce). Cell extracts were denatured, subjected to SDS-PAGE, transferred to PVDF membranes (Bio-Rad) and blocked for 2 hours using 5 bovine serum albumin (BSA) in phosphate-buffered saline and 0.10 Tween® 20 (PBS-T). The membranes were incubated with the specific antibodies overnight in […] at 4° C. followed by a 1 hour incubation with the appropriate horseradish peroxidase-conjugated secondary antibodies and signal was detected by chemiluminescence (Thermo Fisher).
A PathScan® Phospho-SAPK/JNK (Thr183/Tyr185) Sandwich ELISA Assay (Cell Signaling Technology) was used for ELISA assays following the manufacturer's protocol. In general, 500,000 cells were plated and treated with doxycycline the following day where appropriate and incubated at 37° C. for 48 hours. Cells were treated with the drug compound or control in 5% FBS media for 1 hour. After appropriate treatment time, cells were lysed on ice with 1x Cell Lysis Buffer (Cell Signaling Technology) supplemented with phosphatase and protease inhibitors (Sigma). Each diluted cell lysate was added to Phospho-SAPK/JNK (Thr183/Tyr185)Rabbit mAb Coated microwells in triplicate and incubated overnight at 4° C. Samples were treated with the following antibodies and incubated at 37° C. for 1 hour and 30 minutes, respectively: Detection Antibody and HRP-Linked secondary antibody. Samples were washed between treatments using 1× Wash Buffer according to the manufacturer's protocol. TMB substrate was added to each well and incubated at 37° C. for 10 minutes. Following this, STOPsolution was added to each well and absorbance was measured at 450 nm using iMark™ Microplate Absorbance Reader (Bio-Rad). Graphs display relative phospho-JNK levels.

BICR56 cells = test: Colony formation assay, BICR56
Description: as §1

[3] = LZK inhibitor 2, concentration not stated

Question: With `Cc1ncsc1-c1ccc([C@H](C)NC(=O)[C@@H]2C[C@@H](O)CN2C(=O)[C@@H](NC(=O)CCCCCCC(=O)N2CCC(c3cc(Nc4cc(C#N)ccn4)nc(N4CCC(F)(F)C4)c3)CC2)C(C)(C)C)cc1` [Compound 3] as the compound, how does the LSCC cell growth (NCI-H520 cells; 2.5 μM) read?
Answer: significantly decreased LSCC cell growth

Question: And the short-term cell viability (CAL33 cells [1])?
Answer: reduced

Question: What about the clonogenic growth (CAL33 cells [2]; 1 μM for 14 days) of the same compound?
Answer: significant decreases in clonogenic growth

Question: What about the colony formation (CAL33 cells [2]; 2.5 μM) of the same compound?
Answer: almost complete loss of colony formation

Question: What about the LSCC cell growth (LK2 cells; 2.5 μM) of the same compound?
Answer: significantly decreased LSCC cell growth

Question: What about the “JNK signaling inhibition by targeted degraders” value (LZK; CAL33 cells induced with doxycycline, 0-10 μM) of the same compound?
Answer: inhibited JNK signaling

Question: What about the clonogenic growth (BICR56 cells; 1 μM for 14 days) of the same compound?
Answer: significant decreases in clonogenic growth

Question: What about the colony formation (BICR56 cells; 2.5 μM) of the same compound?
Answer: almost complete loss of colony formation

Question: How did the “reduction in colony formation” value (NCI-H520 cells; 500 nM) turn out when `N#Cc1ccnc(Nc2cc(C3CCN(C4COC4)CC3)cc(N3CCC(F)(F)C3)n2)c1` [GNE-3511] was run?
Answer: 55%

Question: And the IC50 (CAL33 cells [1]; Homo sapiens, CAL-33, 72 hours, read-out: IC50, viability in short-term MTS assay)?
Answer: 688 ± 114 nM

Question: And the “reduction in colony formation” value (CAL33 cells [2]; 200 nM, 14 days)?
Answer: ≥ 80%

Question: What about the “reduction in colony formation” value (LK2 cells; 500 nM) of the same compound?
Answer: 45%

Question: And the “LZK activity, as monitored by downstream JNK phosphorylation” value (LZK; 100 nM to 5 μM at 1 hour)?
Answer: inhibited LZK activity

Question: What about the “duration of JNK pathway inactivation” value (LZK) of the same compound?
Answer: up to 72 hours

Question: And the “time at which LZK activity toward JNK was inhibited” value (LZK)?
Answer: ≤ 15 min

Question: And the “LZK inhibition in cells, measured by inhibition of downstream JNK pathway activation” value (LZK)?
Answer: potent LZK inhibitor in cells

Question: And the “reduction in colony formation” value (BICR56 cells; 200 nM, 14 days)?
Answer: ≥ 80%

Question: What does the source list for `CC(=O)N1CCC(c2cc(Nc3cc(C#N)ccn3)nc(N3CCC(F)(F)C3)c2)CC1` [LZK inhibitor 2]?
Answer: LSCC cell growth (NCI-H520 cells; 1 μM): significantly decreased LSCC cell growth; rescue of drug-induced loss of viability by LZK^Q240S expression (CAL33 cells [1]; 72-hour MTS assay): rescued decreases in viability; colony formation (CAL33 cells [2]; [3]): suppressed colony formation; LSCC cell growth (LK2 cells; 1 μM): significantly decreased LSCC cell growth; duration of JNK pathway inactivation (LZK): 72 h; time at which LZK activity toward JNK was inhibited (LZK): five; concentration at which LZK activity was suppressed (LZK; 1 hour): 100 nM; LZK inhibition in cells, measured by inhibition of downstream JNK pathway activation (LZK): potent LZK inhibitor; JNK signaling inhibition compared with GNE-3511 (LZK; one hour): inhibited JNK signaling at lower concentrations than GNE-3511; colony formation (BICR56 cells; [3]): suppressed colony formation

Reference: patent US20240190838A1, “LZK-TARGETING DEGRADERS AND METHODS OF USE” (The U.S.A., as represented by the Secretary, Department of …, priority 2020, published 2024)
